From ChEMBL document CHEMBL4041483, “Aldgamycins J-O, 16-Membered Macrolides with a Branched Octose Unit from Streptomycetes sp. and Their Antibacterial Activities” (2016) come the findings set out here.

For orientation: MIC means the lowest concentration found to suppress growth. Read a low MIC as greater potency.

Assay type in all cases: functional
One assay has as its system Aspergillus niger. Put plainly: Antifungal activity against Aspergillus niger R330 incubated at room temperature for 30 mins followed by incubation at 32 degC for 12 hrs by two-fold dilution method.
For another assay, the system named is Candida albicans. Put plainly: Antifungal activity against Candida albicans FIM709 incubated at room temperature for 30 mins followed by incubation at 32 degC for 12 hrs by two-fold dilution method.
The subject of a further assay is Escherichia coli. The assay can be described thus: Antibacterial activity against Escherichia coli ATCC 0111 incubated at room temperature for 30 mins followed by incubation at 37 degC for 12 hrs by two-fold dilution method.
The next assay relates to Staphylococcus aureus. Put plainly: Antibacterial activity against Staphylococcus aureus 209P incubated at room temperature for 30 mins followed by incubation at 37 degC for 12 hrs by two-fold dilution method.

Structures are written as SMILES. Values after ≈ are worked out from the molar mass of the structure shown.

With `C[C@@H]1C[C@@H]([C@H](O)CC2CC(=O)NC(=O)C2)C(=O)[C@@H](C)C1` [CYCLOHEXIMIDE], the minimum inhibitory concentration (MIC) in the assay on Aspergillus niger was 32 µg/mL (≈ 114 µM); against Candida albicans, 64 µg/mL (≈ 227 µM).

With `CO[C@@H]1[C@H](O)[C@@H](C)O[C@@H](OC[C@H]2/C=C/CCC(=O)[C@H](C)C[C@H](C)[C@H](O[C@@H]3O[C@H](C)C[C@@]4(OC(=O)O[C@H]4C)[C@H]3O)[C@@H](C)/C=C/C(=O)O[C@@H]2C)[C@@H]1OC`, the MIC was more than 500 µg/mL in the assay on Escherichia coli, more than 500 µg/mL with Aspergillus niger, more than 500 µg/mL in the assay on Candida albicans and 32 µg/mL (≈ 44 µM) against Staphylococcus aureus.

For the compound `CO[C@@H]1[C@H](O)[C@@H](C)O[C@@H](OC[C@H]2[C@@H]3O[C@H]3/C=C/C(=O)[C@@](C)(O)C[C@H](C)[C@H](O[C@@H]3O[C@H](C)C[C@H](OC)[C@H]3O)[C@@H](C)/C=C/C(=O)O[C@@H]2C)[C@@H]1OC`, the minimum inhibitory concentration (MIC) is more than 500 µg/mL against Escherichia coli, more than 500 µg/mL against Aspergillus niger, more than 500 µg/mL in the assay on Candida albicans and 4 µg/mL (≈ 5.71 µM) in the assay with Staphylococcus aureus.

In the case of `CO[C@@H]1[C@H](O)[C@@H](C)O[C@@H](OC[C@H]2[C@@H]3O[C@H]3CCC(=O)[C@@](C)(O)C[C@H](C)[C@H](O[C@@H]3O[C@H](C)C[C@](O)([C@H](C)O)[C@H]3O)[C@@H](C)/C=C/C(=O)O[C@@H]2C)[C@@H]1OC`, the minimum inhibitory concentration (MIC) in the assay with Escherichia coli is more than 1000 µg/mL; with Aspergillus niger, more than 1000 µg/mL; with Candida albicans, more than 1000 µg/mL; against Staphylococcus aureus it was 500 µg/mL (≈ 682 µM).

Consider `CO[C@@H]1[C@H](O)[C@@H](C)O[C@@H](OC[C@H]2/C=C/CCC(=O)[C@H](C)C[C@H](C)[C@H](O[C@@H]3O[C@H](C)C[C@](O)([C@H](C)O)[C@H]3O)[C@@H](C)/C=C/C(=O)O[C@@H]2C)[C@@H]1OC`, for which the minimum inhibitory concentration (MIC) in the assay with Escherichia coli is more than 500 µg/mL; with Aspergillus niger, more than 500 µg/mL; against Candida albicans it was more than 500 µg/mL; in the assay with Staphylococcus aureus it was 500 µg/mL (≈ 713 µM).

For the compound `CO[C@@H]1[C@H](O)[C@@H](C)O[C@@H](OC[C@H]2/C=C/C=C/C(=O)[C@H](C)C[C@H](C)[C@H](O[C@@H]3O[C@H](C)C[C@](O)([C@H](C)O)[C@H]3O)[C@@H](C)/C=C/C(=O)O[C@@H]2C)[C@@H]1OC`, the MIC against Escherichia coli was more than 1000 µg/mL; with Aspergillus niger, more than 1000 µg/mL; against Candida albicans, more than 1000 µg/mL; against Staphylococcus aureus, 125 µg/mL (≈ 179 µM).

In the case of `NC[C@H]1O[C@H](O[C@H]2[C@H](O)[C@@H](O[C@H]3O[C@H](CO)[C@@H](O)[C@H](N)[C@H]3O)[C@H](N)C[C@@H]2N)[C@H](N)C[C@@H]1O` [TOBRAMYCIN], the minimal inhibitory concentration (MIC) in the assay with Escherichia coli was 2 µg/mL (≈ 4.28 µM); in the assay on Staphylococcus aureus it was 0.2 µg/mL (≈ 0.428 µM).

As to `CO[C@@H]1[C@H](O)[C@@H](C)O[C@@H](OC[C@H]2[C@@H]3O[C@H]3CCC(=O)[C@H](C)C[C@H](C)[C@H](O[C@@H]3O[C@H](C)C[C@](O)([C@H](C)O)[C@H]3O)[C@@H](C)/C=C/C(=O)O[C@@H]2C)[C@@H]1OC`, the minimal inhibitory concentration (MIC) with Escherichia coli, in the assay on Aspergillus niger, in the assay on Candida albicans and with Staphylococcus aureus was more than 1000 µg/mL in each case.

Regarding `CO[C@@H]1[C@H](O)[C@@H](C)O[C@@H](OC[C@H]2/C=C/C=C/C(=O)[C@@](C)(O)C[C@H](C)[C@H](O[C@@H]3O[C@H](C)C[C@](O)([C@H](C)O)[C@H]3O)[C@@H](C)/C=C/C(=O)O[C@@H]2C)[C@@H]1OC`, the MIC was more than 500 µg/mL against Escherichia coli, more than 500 µg/mL against Aspergillus niger, more than 500 µg/mL against Candida albicans and 16 µg/mL (≈ 22.4 µM) with Staphylococcus aureus.

For the compound `CO[C@@H]1[C@H](O)[C@@H](C)O[C@@H](OC[C@H]2/C=C/CCC(=O)[C@@](C)(O)C[C@H](C)[C@H](O[C@@H]3O[C@H](C)C[C@](O)([C@H](C)O)[C@H]3O)[C@@H](C)/C=C/C(=O)O[C@@H]2C)[C@@H]1OC`, the minimal inhibitory concentration (MIC) was more than 500 µg/mL against Escherichia coli, more than 500 µg/mL with Aspergillus niger, more than 500 µg/mL in the assay on Candida albicans and 32 µg/mL (≈ 44.6 µM) in the assay on Staphylococcus aureus.
